From US8975259B2, “Compositions and methods for inhibiting G protein signaling” (University of Rochester, priority 2007, dated 2015)

Key:
[1] = system: human μ opioid receptor (hMOR-CHO cells); assay: Total inositol phosphate assay in hMOR-CHO cells; format: cell-based; settings: 10 μM; result in words
Description: Chinese hamster ovary (CHO) cells stably expressing either the human κ (hKOR-CHO), δ (hDOR-CHO)(L. Toll, Stanford Research Institute, Palo Alto, Calif.) or μ (hMOR-CHO)(G. Uhl, National Institute on Drug Abuse, Baltimore, Md.) opioid receptor were used in the experiments. Cells in 6-well plates were labeled by adding 4 μCi of [^3H]inositol for 24 hr in inositol-free F-10 media, without serum. After labeling, LiCl was added directly to the labeling media at a final concentration of 10 mM. Ligands or peptides were added at the same time. The final volume of each well was 1 mL. The plates were put back in to the incubator at 37° C. for 30 min after which time the medium was aspirated and the plates were washed twice with 1× PBS. Ice-cold 50 mM formic acid, 1 mL, was added to the plates which were placed in the cold room at 4° C. for 30 min. After the incubation, the contents of the plates were applied to Dowex AG1-X8 columns and allowed to flow all the way through the column. The columns were washed, twice each, with 50 and 100 mM formic acid, for a total of four washes, followed by elution of the IP-containing fraction with 3 mL of 1.2 M ammonium formate/0.1 M formic acid. The eluted fraction was mixed with Scintisafe scintillation fluid, for high salt, and counted. The data are represented as the fold increase over control in total inositol phospates. All experiments were repeated three times and performed in duplicate. Control cells for each experiment were labeled with [^3H]inositol and LiCl, in the same manner as the treatment groups.

Fαi1GDPβ1γ2 heterotrimer = target: T1, Fαi1GDPβ1γ2 heterotrimer (UniProt P54311+P63212); assay: Dissociation of Fαi1 from preformed Fαi1β1γ2 heterotrimer (flow cytometry); format: binding; settings: result in words
T1 construct: made in house; host or cells: b-βγ: Sf9 insect cells
T1 sequence (P54311 whole entry): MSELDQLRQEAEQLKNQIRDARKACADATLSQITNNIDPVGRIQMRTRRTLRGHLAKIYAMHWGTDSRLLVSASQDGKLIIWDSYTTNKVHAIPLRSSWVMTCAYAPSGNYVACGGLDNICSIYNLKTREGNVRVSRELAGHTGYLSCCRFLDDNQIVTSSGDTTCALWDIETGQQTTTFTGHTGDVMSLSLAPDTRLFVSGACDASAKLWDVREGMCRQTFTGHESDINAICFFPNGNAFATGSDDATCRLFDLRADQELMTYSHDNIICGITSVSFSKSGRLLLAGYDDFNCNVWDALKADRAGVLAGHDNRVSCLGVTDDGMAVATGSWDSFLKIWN
T1 sequence (P63212 2-68 limits assumed): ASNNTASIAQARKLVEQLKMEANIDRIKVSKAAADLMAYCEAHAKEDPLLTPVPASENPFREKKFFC
Description: Assays were used to determine peptide effects on Gα-Gβγ interactions included competition and dissociation assays (Ghosh, et al. (2003) supra). […] To measure dissociation of Fan from b-Gβaγ2, 100 pM of Fa^ was incubated with 50 pM immobilized b-Gβ1γ2 at room temperature for 15-20 minutes. The fluorescence of bound Fαii subunit was measured, followed by the addition of a 200-fold excess of unlabeled Gcx±x or peptides and the amount of Fan remaining bound to the beads was measured at the indicated times.
The ability of peptides to dissociate a preformed hetero-trimer was assessed by comparing the rates of Fαi1 dissociation from Fαi1β1γ2 with excess unlabeled αi1 competitor (intrinsic dissocia-tion rate) and in the presence of a saturating concentration of peptide.

O=C(O)C1CCCCC1c1c2ccc(=O)c(O)c-2oc2c(O)c(O)ccc12 (stereo not drawn) [Compound M119, cyclohexanecarboxylic acid, 2-(4,5,6-trihydroxy-3-oxo-3H-xanthen-9-yl)-(9cl)]
effect of compound by itself on IP production [1]: no effect by itself
effect on DAMGO- and morphine-dependent IP production [1]: significantly attenuated
promotion/acceleration of heterotrimer dissociation (Fαi1GDPβ1γ2 heterotrimer): did not promote dissociation
